Columns and labels:
Format in all cases: cell-based
[1] = system: Escherichia coli (10536 strain); test: Antimicrobial efficacy, 15 seconds contact suspension test with plate count (Examples 1 and 3); details: for MBC (minimum biocidal concentration): Example 1 medium, lowest concentration giving complete kill after 15 seconds, upper boundary
Procedure: The efficacies of antimicrobial agents can be usefully compared by determining the Minimum Biocidal Concentration (MBC). The MBC is defined as the lowest absolute concentration of the particular active that provides complete kill (zero bacterial growth).
Antimicrobial efficacy is tested against a representative pathogenic bacterial organism, Gram negative Escherichia coli. Concentrations of actives are expressed in terms of the percentage weight/volume (% w/v) throughout Example 1.
An overnight culture of Escherichia coli (10536 strain) was prepared in 50 ml total volume of TSB broth, grown for ca. 18 hrs at 37° C. and shaken at 150 rpm. 1 ml of this overnight E. coli culture was transferred to 50 ml of fresh TSB broth and incubated at 37° C. at 150 rpm for ca. 4 hours. This culture was separated into equal volumes and centrifuged at 4000 rpm for 15 minutes, washed with sterile saline (0.85% NaCl), centrifuged once more and re-suspended in saline to give a final concentration of 0.8 OD620 equivalent to about 10^8 cells per milliliter for this particular organism. Here, OD620 indicates the absorbance of a sample in a cuvette of 1.0 cm path length at a wavelength of 620 nm. This bacterial stock was used for assaying against antimicrobial actives (in triplicate).
The following assay describes the testing of 8 materials using 6 dilutions across half of a 96-well micro titre plate (MTP). Using this approach it is possible to assay 16 actives (without replicates) with one full dilution plate, replicating this set up in two halves of the plate columns, 1-6 and 7-12.
1M solutions of the test actives were prepared in dimethylsulphoxide (DMSO).
Aliquots (270 μl) of the materials at 1.11 times the final concentration were dispensed into the wells of the MTP along one column (A1-H1). This MTP was labelled as the “Screening plate”.
In another MTP, labelled as the “Dilution plate”, 270 μl of D/E neutralising solution from DIFCO Composition was added to column 1. The composition of the neutralising solution was as follows: pancreatic digest of casein, 5.0 g/L; Yeast Extract, 2.5 g/L; Dextrose, 10 g/L, sodium thioglycollate, 1.0 g/L, sodium thiosulphate, 6.0 g/L; sodium bisulphite, 2.5 g/L; Polysorbate 80, 5.0 g/L; lecithin 7.0 g/L; bromocresol purple, 0.02 g/L with a pH in the range 7.6±0.2.
270 μl of tryptone diluent solution was added to all the remaining wells of the Dilution MTP (columns 2-6). […]

[2] = system: Escherichia coli (E. coli—ATCC #10536); test: High resolution MBC synergy assay, microtiter plate, phosphate buffer containing 35% dipropylene glycol (Example 2); details: for ΣFBC: for the Ca/Cb pair of the same table line; for MBC of component alone (MBCA, MBCB): complete kill in 15 seconds, 35% DPG phosphate buffer
Procedure: The materials were sourced in the same way as for Example 1. Synergy tests were conducted using standard microtiter plate assays with phosphate buffer containing 35% dipropylene glycol (DPG). […] The MBC plate was inoculated one column at a time with the test microorganism. An aliquot of the inoculated well was transferred at 15 seconds to a plate containing a neutralizing agent (D/E Neutralizing Broth), mixed and held for 5 minutes before being transferred to a growth plate containing trypticase soy broth (TSB). The TSB plate was incubated at 37° C. and read for the presence/absence of growth at 24 hours. […] This microorganism is representative of natural contaminants in many consumer and industrial applications.

[3] = system: Escherichia coli (E. coli—ATCC #10536); test: Automated assessment of efficacy in surfactant base, DeltaOD in D/E quench (Example 4); details: for MBC: in 2.85% sodium cocoyl glycinate + 1.85% sodium lauroamphoacetate solution at pH 10; for 15 second bactericidal efficacy in combination with thymol: in combination with thymol at concentrations lower than their MBC, same surfactant formulation, all 4 or 3 replicates, respectively
Procedure: In these examples, the efficacy of combinations of thymol and propen-2-yl-methyl-cyclohexanols of the invention were tested in a surfactant cleansing formulation comprising 2.85% sodium cocoyl glycinate and 1.85% sodium lauroamphoacetate. This corresponds to a 50% in use dilution with water of a typical neat formulation containing 5.7% cocoyl glycinate and 3.7% % sodium lauroamphoacetate during hand washing. Solutions were prepared such that the concentrations of the surfactant components and test actives were 1.1 times the final desired concentration in order to allow for dilution with the bacterial inoculum in the test. The solutions were manually adjusted to pH 10.0 by dropwise addition of sodium hydroxide solution, as measured with a pH meter at ambient temperature. Solutions of the thymol and/or propen-2-yl-methyl-cyclohexanols of the invention were prepared at a maximum of 24 hours before testing. The same thymol and propen-2-yl-methyl-cyclohexanols were tested as in Example 1.
The efficacy of the combinations of the present invention was determined against the same bacterium as in Example 1, Escherichia coli (E. coli—ATCC #10536), at a concentration of approximately 1×10^8 bacteria per mL.
Tests were conducted using standard microtiter plate assays using an automated liquid handling system. 270 μl of the surfactant test solution was pipetted into each well of the microtitre plate (Nunc F Gamma Irradiated 96F untreated microtitre plates of clear polystyrene) and 30 μl of the bacterial suspension was then added. After exactly 15 seconds of bacterial exposure, a 30 μl volume of bacterial cells was withdrawn and transferred to 270 μl of D/E quench solution. After 5 minutes in the D/E quench, the optical density (OD) was measured for each plate in turn at two specific wavelengths (450 nm and 590 nm). These provide a dual check of antimicrobial activity, as the OD450 reading is specific for the yellow colour of D/E quench when bacterial growth is observed, whereas OD590 is specific for the initial purple colour of the D/E quench which is retained if no bacterial growth is observed. […] Delta OD values were calculated by subtracting […] at time=16 hours. […] To identify antibacterially efficacious systems (those preventing appreciable bacterial growth after incubation), the following threshold changes in OD readings have been adopted: if (1). OD450 increases by less than 0.2 absorbance unit (AU) on incubation and (2). […] The number of replicate wells showing either bacterial growth or no growth is also readily assessed by eye by following the colour change. […]
In each case, binary mixtures were assessed in the weight to weight ratio of thymol to propen-2-yl-methyl-cyclohexanols of 1:2.5.

SMILES | MBC (minimum biocidal concentration) [1] | ΣFBC ([2]; Table 7) | MBC of component alone (MBCA, MBCB) ([2]; Table 7 series) | MBC [3] | 15 second bactericidal efficacy in combination with thymol [3] | ΣFBC ([2]; Table 8) | MBC of component alone (MBCA, MBCB) ([2]; Table 8 series) | MBC ([1]; Example 3, protocol of Example 1) | reduction of thymol concentration required for complete kill ([1]; combination with […] w/v 2-methyl-5-(propen-2-yl)-cyclohexanol versus thymol in isolation)
C=C(C)C1CCC(C)C(O)C1 (stereo not drawn) [2-methyl-5-(propen-2-yl)-cyclohexanol] | 0.3 % w/v | 1.00 | 0.5 weight % | >0.5 % w/v | complete kill | – | – | – | –
C=C(C)[C@@H]1CC[C@@H](C)C[C@H]1O [5-methyl-2-(propen-2-yl)-cyclohexanol, (1R,2S,5R)-5-methyl-2-(propen-2-yl)-cyclohexanol] | 0.3 % w/v | – | – | >0.5 % w/v | complete kill | 1.00 | 0.5 weight % | – | –
C=C(C)[C@@H]1CC[C@@H](C)[C@@H](O)C1 [(1S,2R,5R)-2-methyl-5-(1-methylethenyl)-cyclohexanol] | – | – | – | – | – | – | – | 0.3 % w/v | –
Cc1ccc(C(C)C)c(O)c1 [thymol, 2-isopropyl-5-methylphenol, reference compound] | – | 1.00 | 0.2 weight % | – | – | 1.00 | – | – | 4 fold

From patent US9339477B2, “Antimicrobial composition” (Rohm and Haas Company, priority 2011, dated 2016)
